Experimental data from patent US20230201207A1, “COMBINATION CANCER THERAPY USING N2-QUINOLINE OR ISOQUINOLINE SUBSTITUTED PURINE DERIVATIVES” (SHANGHAI HUAYU BIOTECHNOLOGY CO., LTD., priority 2020, published 2023).
pEC50: −log10 of the molar value.

Key:
CT-26 WT cells = assay: Anti-tumor effect in CT-26 WT tumor-bearing BALB/c mice; assay type: in vivo; details: for Average tumor size: Anti-m-PD-1 10 mg/kg I.P., Compound A 40 mg/kg P.O.
Description: (§1) CT-26 WT cells were maintained at 37° C. in 5% CO2 in RPMI 1640 medium (10-040-CV, Corning cellgro) supplemented with 10% FBS (10270-106, GIBCO) and used before the 10th subculture. At Day 0, 45 BALB/c female mice, 5-6 weeks old, were each subcutaneously injected with about 200.0 μL. of the CT-26 WT cell medium containing about 5×10^5 cells.
(§2) At Day 9, 32 tumor-bearing mice were randomly allocated to four groups according to their tumor volumes, 8 mice per group. The rest were subject to euthanasia.
(§3) The four groups of animals were administered with an anti-m-PD-1 antibody (BE0146, BioXcell) in PBS (21-040-CVR, BioXcell) at 1.0 mg/mL, Compound A in saline at 4.0 mg/mL, the anti-m-PD-1 antibody in combination with Compound A, and the control vehicle (saline), respectively, at doses shown in Table 1 below.
(§4) Mice were observed every day for their physical conditions and activities, and mice body weight and tumor volume were measured every Tuesday, Thursday and Sunday. The tumor volume (V) was calculated as (length×width^2)/2.
(§5) At Day 23, mice were subject to euthanasia, from which tumors were collected, weighed and photographed. Mice body weights, tumor sizes and tumor weights were analyzed using the t-test in SPSS, and group differences were deemed statistically significant when the p-value was 0.05 or less.
Tumor growth inhibition (TGI) was calculated based on tumor weight or tumor volume. Further, Zheng-Jun Jin's Q value was calculated using the formula Q=EA+B/(EA+EB−EA×EB) to assess the combined effect of the anti-PD-1 antibody and Compound A, wherein EA+B, EA, and EB referred to the TGIs of the combination therapy, anti-PD-1 administration and Compound A administration, respectively. A Q value higher than 1.15 indicated a synergistic or additive effect.

PI3K β isoform = PI3K β isoform (Homo sapiens, UniProt P42338)
PI3K β isoform, sequence (P42338 whole entry, canonical isoform): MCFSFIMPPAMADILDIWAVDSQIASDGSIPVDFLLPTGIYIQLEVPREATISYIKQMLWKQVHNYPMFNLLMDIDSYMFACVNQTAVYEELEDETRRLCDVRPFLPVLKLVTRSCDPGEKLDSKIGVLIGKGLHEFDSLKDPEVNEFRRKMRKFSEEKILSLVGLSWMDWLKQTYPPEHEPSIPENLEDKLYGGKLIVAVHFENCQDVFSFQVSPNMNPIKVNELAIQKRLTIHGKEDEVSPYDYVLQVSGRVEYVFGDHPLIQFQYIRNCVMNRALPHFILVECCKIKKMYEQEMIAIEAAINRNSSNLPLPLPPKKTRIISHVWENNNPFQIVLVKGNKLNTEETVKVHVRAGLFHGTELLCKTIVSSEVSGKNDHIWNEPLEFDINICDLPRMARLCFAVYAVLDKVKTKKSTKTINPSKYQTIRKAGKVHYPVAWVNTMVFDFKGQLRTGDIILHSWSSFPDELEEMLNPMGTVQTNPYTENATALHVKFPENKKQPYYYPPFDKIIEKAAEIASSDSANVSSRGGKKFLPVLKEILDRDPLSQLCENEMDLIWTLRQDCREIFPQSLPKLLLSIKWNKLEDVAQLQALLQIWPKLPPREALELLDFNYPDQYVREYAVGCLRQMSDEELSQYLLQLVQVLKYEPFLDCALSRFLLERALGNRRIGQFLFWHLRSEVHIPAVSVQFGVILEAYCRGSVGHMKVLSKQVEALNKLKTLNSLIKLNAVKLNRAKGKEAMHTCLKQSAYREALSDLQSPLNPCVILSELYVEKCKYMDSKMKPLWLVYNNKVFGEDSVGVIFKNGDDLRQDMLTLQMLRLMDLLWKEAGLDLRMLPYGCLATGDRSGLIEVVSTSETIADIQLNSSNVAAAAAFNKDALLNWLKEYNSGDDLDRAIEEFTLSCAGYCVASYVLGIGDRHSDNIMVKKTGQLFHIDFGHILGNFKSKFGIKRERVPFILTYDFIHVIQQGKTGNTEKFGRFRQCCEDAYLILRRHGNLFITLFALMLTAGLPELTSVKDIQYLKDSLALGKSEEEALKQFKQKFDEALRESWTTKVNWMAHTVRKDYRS
PI3K β isoform, sequence (P27986 whole entry partner, canonical isoform): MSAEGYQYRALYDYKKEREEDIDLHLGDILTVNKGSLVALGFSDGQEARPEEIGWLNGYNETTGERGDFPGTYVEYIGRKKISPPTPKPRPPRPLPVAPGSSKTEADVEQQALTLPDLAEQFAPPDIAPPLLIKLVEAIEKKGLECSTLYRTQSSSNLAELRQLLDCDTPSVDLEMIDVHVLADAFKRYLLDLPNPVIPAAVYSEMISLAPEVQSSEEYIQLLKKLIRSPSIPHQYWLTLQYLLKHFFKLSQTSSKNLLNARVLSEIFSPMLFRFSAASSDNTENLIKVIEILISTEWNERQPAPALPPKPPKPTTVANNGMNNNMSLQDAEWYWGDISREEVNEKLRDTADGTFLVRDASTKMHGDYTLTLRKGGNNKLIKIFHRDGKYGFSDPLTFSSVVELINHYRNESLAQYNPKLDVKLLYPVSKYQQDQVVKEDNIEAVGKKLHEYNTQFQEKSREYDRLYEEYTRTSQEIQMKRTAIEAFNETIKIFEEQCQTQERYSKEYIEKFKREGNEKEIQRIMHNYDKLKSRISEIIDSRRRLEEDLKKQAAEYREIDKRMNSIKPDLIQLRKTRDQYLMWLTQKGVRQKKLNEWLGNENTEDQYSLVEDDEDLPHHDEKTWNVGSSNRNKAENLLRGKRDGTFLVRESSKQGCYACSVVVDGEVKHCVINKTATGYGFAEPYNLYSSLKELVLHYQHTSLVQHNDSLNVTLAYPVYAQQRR

PDGFR = assay: Inhibition of PDGFR phosphorylation; assay type: biochemical
Description: (§6) FLT3 is a class III receptor tyrosine kinase and plays an important role in hematopoiesis and lymphocyte development. […] Wang et al found over 60% of 82 leukemia cell lines were FLT3 positive (Wang Y et al., (2006) Journal of Experimental Hematology 14(3): 446-449). […] Thus, the compounds of the disclosure with high inhibitory effect on FLT3 function may be good candidates for leukemia treatment.

AKT = assay: Inhibition of AKT phosphorylation; assay type: biochemical
Description: as §6

PI3K γ isoform = PI3K γ isoform (Homo sapiens, UniProt P48736); assay: PI3K isoform inhibition, γ isoform (method of CN104513254A)
PI3K γ isoform, sequence (P48736 whole entry, canonical isoform): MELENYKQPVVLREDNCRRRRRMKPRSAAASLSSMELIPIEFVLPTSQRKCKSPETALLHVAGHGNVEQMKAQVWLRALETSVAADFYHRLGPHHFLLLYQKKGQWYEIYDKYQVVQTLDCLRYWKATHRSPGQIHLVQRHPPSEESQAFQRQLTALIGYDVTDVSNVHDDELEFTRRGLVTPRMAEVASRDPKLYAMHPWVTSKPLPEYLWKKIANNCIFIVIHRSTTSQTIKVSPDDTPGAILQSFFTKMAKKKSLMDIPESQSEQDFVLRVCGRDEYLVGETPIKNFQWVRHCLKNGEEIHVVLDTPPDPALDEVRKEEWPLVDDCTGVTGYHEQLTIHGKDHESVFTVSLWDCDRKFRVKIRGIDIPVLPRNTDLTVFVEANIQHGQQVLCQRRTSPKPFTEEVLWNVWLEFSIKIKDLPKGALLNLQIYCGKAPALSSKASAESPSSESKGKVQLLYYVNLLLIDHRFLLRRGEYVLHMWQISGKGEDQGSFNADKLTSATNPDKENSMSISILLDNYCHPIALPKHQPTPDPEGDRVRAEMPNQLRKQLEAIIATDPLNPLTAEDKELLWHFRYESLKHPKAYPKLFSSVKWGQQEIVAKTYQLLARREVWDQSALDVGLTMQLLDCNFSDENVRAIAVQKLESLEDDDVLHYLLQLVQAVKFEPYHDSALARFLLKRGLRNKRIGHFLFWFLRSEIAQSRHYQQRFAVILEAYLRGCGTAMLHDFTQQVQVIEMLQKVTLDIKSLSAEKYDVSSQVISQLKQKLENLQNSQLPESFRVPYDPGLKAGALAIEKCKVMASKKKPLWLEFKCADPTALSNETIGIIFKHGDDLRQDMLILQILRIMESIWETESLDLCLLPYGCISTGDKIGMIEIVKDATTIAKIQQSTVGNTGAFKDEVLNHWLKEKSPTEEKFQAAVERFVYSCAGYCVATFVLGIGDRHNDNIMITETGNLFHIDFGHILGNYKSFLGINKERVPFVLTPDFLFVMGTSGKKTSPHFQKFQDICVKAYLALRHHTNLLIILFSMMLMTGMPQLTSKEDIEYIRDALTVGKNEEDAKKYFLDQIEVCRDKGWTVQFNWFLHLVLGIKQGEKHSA

PI3K α isoform = PI3K α isoform (Homo sapiens, UniProt P42336)
PI3K α isoform, sequence (P42336 whole entry, canonical isoform): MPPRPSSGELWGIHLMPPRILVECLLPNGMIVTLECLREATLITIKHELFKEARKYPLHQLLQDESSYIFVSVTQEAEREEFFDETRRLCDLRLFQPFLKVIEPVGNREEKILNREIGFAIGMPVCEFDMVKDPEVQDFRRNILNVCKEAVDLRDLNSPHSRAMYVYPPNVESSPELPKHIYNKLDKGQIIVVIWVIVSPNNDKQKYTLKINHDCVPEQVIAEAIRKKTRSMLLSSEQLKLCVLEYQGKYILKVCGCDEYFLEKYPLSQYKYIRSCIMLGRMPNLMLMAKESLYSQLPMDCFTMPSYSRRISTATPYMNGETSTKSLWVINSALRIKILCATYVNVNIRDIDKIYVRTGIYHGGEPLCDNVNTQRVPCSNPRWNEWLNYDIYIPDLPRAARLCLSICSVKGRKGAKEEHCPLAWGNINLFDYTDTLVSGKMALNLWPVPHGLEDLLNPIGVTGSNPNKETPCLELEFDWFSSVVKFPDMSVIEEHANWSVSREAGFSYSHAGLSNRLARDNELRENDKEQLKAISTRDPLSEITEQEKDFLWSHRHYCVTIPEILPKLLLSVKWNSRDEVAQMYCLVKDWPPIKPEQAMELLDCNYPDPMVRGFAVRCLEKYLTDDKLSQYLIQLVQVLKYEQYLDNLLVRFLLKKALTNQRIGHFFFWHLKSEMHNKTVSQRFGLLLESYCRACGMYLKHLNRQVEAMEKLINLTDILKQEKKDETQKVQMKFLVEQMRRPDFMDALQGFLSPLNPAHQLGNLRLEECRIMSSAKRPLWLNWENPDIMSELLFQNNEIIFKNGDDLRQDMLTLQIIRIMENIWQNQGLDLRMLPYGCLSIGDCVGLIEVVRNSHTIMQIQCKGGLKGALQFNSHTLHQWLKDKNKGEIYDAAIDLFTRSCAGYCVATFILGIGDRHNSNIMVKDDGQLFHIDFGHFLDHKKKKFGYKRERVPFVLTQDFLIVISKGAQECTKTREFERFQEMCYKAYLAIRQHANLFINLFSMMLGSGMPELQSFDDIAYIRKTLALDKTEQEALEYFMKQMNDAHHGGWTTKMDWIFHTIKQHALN
PI3K α isoform, sequence (P27986 whole entry partner, canonical isoform): as the sequence (P27986 whole entry partner, canonical isoform) above

[1] = Body weight and survival of CT-26 WT tumor-bearing BALB/c mice; assay type: in vivo; details: for Average body weight: Anti-m-PD-1 10 mg/kg I.P., Compound A 40 mg/kg P.O.
Description: as §1, §2, §3, §4, §5

[2] = human, in vivo; cited from earlier work

For `c1cnc2ccc(Nc3nc(NC4CC4)c4nc[nH]c4n3)cc2c1` [Compound A], the Average tumor size (CT-26 WT cells; Day 9 (allocation)) was 176.94 mm^3, the Average tumor size (CT-26 WT cells; Day 10) was 272.49 mm^3 and the Average tumor size (CT-26 WT cells; Day 12) was 492.26 mm^3. The Average tumor size (CT-26 WT cells; Day 14) was 672.51 mm^3, the Average tumor size (CT-26 WT cells; Day 16) was 876.22 mm^3 and the Average tumor size (CT-26 WT cells; Day 18) was 1099.45 mm^3. The Average tumor size (CT-26 WT cells; Day 20) was 1348.89 mm^3, the Average tumor size (CT-26 WT cells; Day 22) was 1698.25 mm^3 and the “Tumor volume based TGI” value (CT-26 WT cells; Day 23) was 19.35%. The “Tumor weight based TGI” value (CT-26 WT cells; Day 23) was 31.71%, the Average tumor size (CT-26 WT cells; Day 23) was 1870.89 mm^3 and the “Tumor weight, Average” value (CT-26 WT cells; group average at Day 23, 8 mice) was 1.93 g. The “Tumor weight, Mouse no. 1” value (CT-26 WT cells; individual tumor isolated at Day 23, Mouse no. 1) was 1.14 g, the “Tumor weight, Mouse no. 2” value (CT-26 WT cells; individual tumor isolated at Day 23, Mouse no. 2) was 2.11 g and the “Tumor weight, Mouse no. 3” value (CT-26 WT cells; individual tumor isolated at Day 23, Mouse no. 3) was 2.11 g. The “Tumor weight, Mouse no. 4” value (CT-26 WT cells; individual tumor isolated at Day 23, Mouse no. 4) was 0.89 g, the “Tumor weight, Mouse no. 5” value (CT-26 WT cells; individual tumor isolated at Day 23, Mouse no. 5) was 1.68 g and the “Tumor weight, Mouse no. 6” value (CT-26 WT cells; individual tumor isolated at Day 23, Mouse no. 6) was 2.16 g. The “Tumor weight, Mouse no. 7” value (CT-26 WT cells; individual tumor isolated at Day 23, Mouse no. 7) was 2.73 g, the “Tumor weight, Mouse no. 8” value (CT-26 WT cells; individual tumor isolated at Day 23, Mouse no. 8) was 2.64 g and the “EC50, PI3K β isoform inhibition” value (PI3K β isoform) was “μM level”. The pEC50 (PDGFR) was ~6.00, the pEC50 (AKT) was ~7.00 and the “EC50, PI3K γ isoform inhibition” value (PI3K γ isoform) was “μM level”. The “EC50, PI3K α isoform inhibition” value (PI3K α isoform) was “μM level”, the Average body weight ([1]; Day 9 (allocation)) was 15.59 g and the Average body weight ([1]; Day 10) was 15.16 g. The Average body weight ([1]; Day 12) was 15.86 g, the Average body weight ([1]; Day 14) was 15.91 g and the Average body weight ([1]; Day 16) was 16.46 g. The Average body weight ([1]; Day 18) was 16.75 g, the Average body weight ([1]; Day 20) was 17.01 g and the Average body weight ([1]; Day 22) was 17.72 g. The “Mice weight with the tumor weight deducted” value ([1]; Day 23) was 16.22 g and the Average body weight ([1]; Day 23) was 18.15 g.
For Ipilimumab, the “Patients who experienced immune-related adverse effects” value [2] is given as 64%.
